Experimental findings from US9975849B1, “Gossypol l-arginine schiff base compound with antitumor activities and a method of preparing the same” (SHAANXI PANLONG PHARMACEUTICAL GROUP LIMITED BY SHARE LTD., priority 2017, dated 2018) are described below.

SMILES strings stand for the structures. Read-outs that look alike come from different tables or passages of the source.

Format in all cases: cell-based
Assay [1] concerns human hepatoma cells (HepG2). As to the kind of experiment: MTT tumor cell proliferation inhibition test, HepG2. Conditions: for IC50: Homo sapiens, read-out: Half Inhibitory Concentration IC50 HepG2. On the procedure: (§1) The compounds of the present invention were subjected to tumor cell proliferation inhibition test, and conventional MTT method was used.
(§2) Cell lines: human hepatoma cells (HepG2), human lung cancer cells (A-549), human gastric cancer cells (SGC-7901). The culture medium was DMEM+15% NBS+double antibody.
(§3) Sample solution preparation: after dissolving with DMSO (Merck), PBS (-) was added to obtain 100 μmol/L solution or homogeneous suspension. The solution was diluted with PBS (-) in DMSO to a final concentration of 0.1, 1, 10, 20, 40, 60, 80, 100 μmol/L.
(§4) Anti-uterine fibroids drug gossypol was used as control solution, prepared under the same condition.
(§5) Cell culture: adherent growth Tumor cells were cultured in 1640 medium containing 10% inactivated neonatal bovine serum and penicillin, streptomycin (1 million U/L), placed in carbon dioxide incubator at 37° C., 5% CO2, and saturated humidity. Cells were treated serially passaged 2-3 times. The first culture was washed with PBS 2 times, and digested with trypsin. Fresh culture medium was added evenly, cells were adjusted to a appropriate concentration and transferred into a new culture flask. […]
(§6) Experimental Principle: Living cells mitochondria in the dehydrogenase can reduce yellow MTT to water-insoluble blue-violet product MT (MTT formazan), deposited in the cells. […] DMSO can dissolve blue violet crystals, and the color depth is proportional to the amount contained, so the absorbance measured by the microplate reader can reflect the cell viability.
(§7) Methods: The exponential phase cells were digested and counted and seeded in 96-well plates at a density of 2×10^4/mL at 100 μl per well. […] After 48 hours, the supernatant was discarded, and 100 μl of MTT ((2-(4,5-dimethyl-2-thiazolyl)-3,5-diphenyl-2H-[…]) (1 mg/mL) was added to each well. After another 4 hours, the supernatant was discarded, and 100 μl of DMSO was added to each well. After mixing, the absorbance was measured at 570 nm using a microplate reader. An IC50 calculation software was used to determine the half inhibitory concentration (IC50).

Assay [2] has as its system human lung cancer cells (A-549). As to the kind of experiment: MTT tumor cell proliferation inhibition test, A-549. On the procedure: as §1, §2, §3, §4, §5, §6, §7
Assay [3] has as its system human gastric cancer cells (SGC-7901). The assay can be described thus: MTT tumor cell proliferation inhibition test, SGC-7901. Conditions: for IC50: Homo sapiens, read-out: Half Inhibitory Concentration IC50 SGC-7901. The procedure: as §1, §2, §3, §4
Cell culture: adherent growth Tumor cells were cultured in 1640 medium containing 10% inactivated neonatal bovine serum and penicillin, streptomycin (1 million U/L), placed in carbon dioxide incubator at 37° C., 5% CO2, and saturated humidity. Cells were treated serially passaged 2-3 times. The first culture was washed with PBS 2 times, and digested with trypsin. Fresh culture medium was added evenly, cells were adjusted to a appropriate concentration and transferred into a new culture flask. Cell in an exponential phase were chosen for the tests.
MTT Assay for Cell Viability and IC50 Determination:
Experimental Principle: Living cells mitochondria in the dehydrogenase can reduce yellow MTT to water-insoluble blue-violet product MT (MTT formazan), deposited in the cells. The amount of production is proportional to the number of living cells. […] DMSO can dissolve blue violet crystals, and the color depth is proportional to the amount contained, so the absorbance measured by the microplate reader can reflect the cell viability.
Methods: The exponential phase cells were digested and counted and seeded in 96-well plates at a density of 2×10^4/mL at 100 μl per well. After 24 hours of incubation, the cells to be tested were treated with 0.1, 1, 10, 20, 40, 60, 80, 100 μmol/L of the compounds. Each experimental group had 5 wells in each concentration, and the culture medium containing 0.4% DMSO was used as control. After 48 hours, the supernatant was discarded, and 100 μl of MTT ((2-(4,5-dimethyl-2-thiazolyl)-3,5-diphenyl-2H-[…]) (1 mg/mL) was added to each well. After another 4 hours, the supernatant was discarded, and 100 μl of DMSO was added to each well. After mixing, the absorbance was measured at 570 nm using a microplate reader. An IC50 calculation software was used to determine the half inhibitory concentration (IC50).

In the case of `Cc1cc2c(C(C)C)c(O)c(O)c(/C=N\C(=N)NCCC[C@H](N)C(=O)O)c2c(O)c1-c1c(C)cc2c(C(C)C)c(O)c(O)c(/C=N/C(=N)NCCC[C@H](N)C(=O)O)c2c1O` [Gossypol L-arginine Schiff base compound, gossypol L-arginine Schiff base compound], the “antitumor activities (in words)” value is “excellent antitumor activities” in assay [1] (HepG2, one of the three cell lines tested); “excellent antitumor activities” in assay [2] (A549, one of the three cell lines tested); “excellent antitumor activities” in assay [3] (SGC-7901, one of the three cell lines tested). Besides, the IC50 in assay [1] (MTT, 48 hours treatment, HepG2) was 11.7 ± 0.32 µM; in assay [2] (Homo sapiens, MTT, 48 hours treatment, A549, read-out: Half Inhibitory Concentration IC50 A549) it was 12.3 ± 0.69 µM; in assay [3] (MTT, 48 hours treatment, SGC-7901), 9.37 ± 0.36 µM. The “antitumor activities compared with gossypol” value in assay [2] (against A549) and in assay [3] (against SCG-7901) was “better antitumor activities than gossypol” throughout.

On to `Cc1cc2c(C(C)C)c(O)c(O)c(C=O)c2c(O)c1-c1c(C)cc2c(C(C)C)c(O)c(O)c(C=O)c2c1O` [Gossypol, gossypol], for which the IC50 is 8.29 ± 0.28 µM in assay [1] (HepG2, 48 h) and 18.2 ± 0.37 µM in assay [3] (SGC-7901, 48 h).
